In assay [1] the test system is bladder overactivity induced by 0.25% acetic acid (AA) irritation. Description: Cystometrogram (CMG) bladder capacity during 0.25% acetic acid (AA) infusion in anesthetized cats, tolterodine with and without foot stimulation. It is filed as in vivo, cat. As to conditions: for bladder capacity: AA infusion. As for the experimental part:
Experiments were conducted in a total of 6 adult cats (4 female and 2 male cats between 2.8-3.8 kg) under achloralose anesthesia (65 mg/kg, supplemented as necessary) after induction with isoflurane (2-3% in O2). Heart rate and blood oxygen level were monitored with a pulse oximeter (9847 V, Nonin Medical Inc., Plymouth, MN, USA) that was attached to the tongue. Systemic blood pressure was monitored via a catheter in the right carotid artery. These physiological parameters were monitored to ensure that the animal's vital functions remained relatively stable during the entire experiment. Drugs or fluids were administered through a catheter in the right cephalic vein and airway access was secured with a tracheostomy tube. Ureters were accessed through a midline abdominal incision and drained externally. The bladder was cannulated through the urethra with a double lumen catheter to infuse (1-2 ml/min) saline or 0.25% acetic acid (AA) via one lumen and measure bladder pressure via another lumen. A ligature was tied around the proximal urethra to prevent leakage. Fur was removed from the foot and two self-adhesive pad electrode (Grass FE10ND, Astro-Medical Inc., Mentor, OH, USA; diameter 1 cm) were attached to the skin at the bottom of the left hind foot. One electrode was at the front of the foot and the other was at the heel.
Uniphasic rectangular pulses (5 Hz frequency, 0.2 ms pulsewidth) were delivered to the skin electrodes on the foot. Threshold (T) stimulation intensity (3-16 V), which was defined as the minimal intensity to induce an observable toe twitch, was determined by slowly increasing the stimulation intensity at the beginning of the experiment. […] The initial bladder capacity was determined during a cystometrogram (CMG) by slowly infusing the bladder with saline. Bladder capacity was defined as the bladder volume threshold to induce a bladder reflex contraction of large amplitude (>30 cm H2O) and long duration (>20 seconds).
Multiple CMGs were performed to determine reproducibility of the saline control capacity. Then, repeated CMGs were performed with AA infusion to irritate the bladder, activate nociceptive bladder C-fiber afferents, and induce bladder overactivity. Once the irritated bladder capacity was stabilized, four CMGs were performed prior to drug administration: 1. control CMG without stimulation; 2. CMG during 2 T stimulation; 3. CMG during 4 T stimulation; and 4. control CMG without stimulation to determine any post-stimulation effect. Increasing cumulative doses of tolterodine (tolterodine L-tartrate, Tocris Bioscience, Bristol, UK) were then administered (0.003, 0.01, 0.03, 0.1, and 0.3 mg/kg, i.v.). Ten minutes after administering each dose of tolterodine, the CMGs were performed again under the four different conditions (control, 2 T stimulation, 4 T stimulation, and post-stimulation control) to determine the drug effect on bladder capacity. The bladder was emptied after each CMG followed by a 3-5 min rest period to allow the distended detrusor to recover.
For the repeated CMG recordings, bladder capacity was normalized to the initial saline control capacity in the same animal to allow comparisons between animals. Capacity measurements under the same conditions were averaged and reported as mean±standard error of the mean (SEM). The mean amplitude of the bladder reflex contraction was also measured during each CMG and normalized to the AA control CMG to determine the effect of tolterodine on detrusor contractility. Statistical significance (p<0.05) was detected by ANOVA followed by Dunnett or Bonferroni post-tests.

The test system is the same in assay [2]. Description: Cystometrogram (CMG) bladder capacity during 0.25% acetic acid (AA) infusion in anesthetized cats, duloxetine / WAY100635 with and without foot stimulation. The format is in vivo, cat. As for the experimental part: Experiments were performed in a total of 8 adult anesthetized cats (5 female and 3 male cats between 3.1-4.4 kg). Each cat was anesthetized with isoflurane (2-3% in O2) during surgery and then changed to α-chloralose (65 mg/kg, supplemented as necessary) anesthesia during data collection. A pulse oximeter (9847V, Nonin Medical Inc., Plymouth, MN, USA) with the sensor attached to the tongue was used to monitor heart rate and blood oxygen saturation. Catheters were inserted in the right cephalic vein and right carotid artery for intravenous infusion of drugs and monitoring systemic blood pressure, respectively. Airway access was secured with a tracheostomy tube. Ureters were accessed through a midline abdominal incision and drained externally. The bladder was then cannulated with a double lumen catheter through a small cut at the proximal urethra to infuse saline or 0.25% AA and simultaneously measure bladder pressure. The proximal urethra was tied to prevent leakage. Fur was removed from the right hind foot and two self-adhesive pad electrodes (Grass FE10ND, Astro-Medical Inc., Mentor, OH, USA; diameter 1 cm) were attached to the skin at the bottom of the foot. One electrode was at the front of the foot and the other was at the heel (Chen G et al. Post-stimulation inhibitory effect on reflex bladder activity induced by activation of somatic afferent nerves in the foot. J Urol 187: 338-343, 2012; Tai C et al. Suppression of bladder overactivity by activation of somatic afferent nerves in the foot. BJU Int 107: 303-309, 2011).
Uniphasic rectangular pulses (5 Hz frequency, 0.2 ms pulsewidth) were delivered to the surface electrodes on the foot. Stimulation intensity threshold (T) was defined as the minimal intensity to induce a toe twitch. […] BJU Int 107: 303-309, 2011). Initially the bladder capacity was determined during cystometrograms (CMGs) by slowly infusing the bladder with saline. Multiple CMGs were performed to ensure reproducibility of the saline control capacity.
Bladder capacity was defined as the bladder volume threshold required to induce a micturition contraction of large amplitude (>30 cm H2O) and long duration (>20 seconds). Then, repeated CMGs were performed with infusion of 0.25% AA to irritate the bladder, activate nociceptive bladder afferent C-fibers, and induce bladder overactivity. When the bladder capacity stabilized, four CMGs were performed with AA infusion (Infusion rate=2 mL/min) prior to the administration of duloxetine: (1) control without stimulation, (2) during 2 T stimulation, (3) during 4 T stimulation, and (4) control without stimulation to determine any post-stimulation effect. The bladder was emptied at the end of each CMG and a 3-5 minute rest period was inserted between CMGs.
After the pre-drug CMGs were performed, increasing cumulative doses (0.003, 0.01, 0.03, 0.1, 0.3, 1, and 3 mg/kg, i.v.) of duloxetine (Selleck Chemicals, Houston, TX) were given to determine the drug effect on bladder capacity. Ten minutes after administering each dose of duloxetine, the four CMGs were again performed with AA infusion under different conditions (control, 2 T stimulation, 4 T stimulation, and post-stimulation control). The four repeated CMGs were completed within 40-60 minutes. In 4 cats 50-70 minutes after giving the maximal dose of duloxetine (3 mg/kg), WAY100635 (Sigma-Aldrich, St. Louis, MO), a 5HT1A antagonist, was administered (0.5 mg/kg, i.v.) to block 5HT1A inhibitory autoreceptors on serotonergic neurons in the raphe nucleus in an attempt to enhance the serotonergic inhibitory influence of duloxetine on bladder reflexes. Five minutes after administration of WAY100635, we performed control CMGs without stimulation to examine the combined effect of WAY100635 and duloxetine on bladder capacity.
For each CMG, bladder capacity was normalized to the initial saline control capacity in the same animal, which allowed for comparisons between animals.

The test system is the same in assay [3]. As to conditions: 0.5168 mg/kg dose alone (references 20, 31, 36); cited from earlier work.

Molecules are shown by their SMILES.

Consider `Cc1ccc(O)c([C@H](CCN(C(C)C)C(C)C)c2ccccc2)c1` [tolterodine], for which the “effect on control bladder capacity” value in assay [1] (0.1 mg/kg i.v., absence of stimulation) is recorded as “not effective in significantly increasing control bladder capacity”. Further, the “amplitude of bladder reflex contractions” value in assay [1] (0.003-0.3 mg/kg i.v., control, 2 T or 4 T foot stimulation CMGs) is reported as “did not alter the amplitude of bladder reflex contractions”. In assay [1] (2 T and 4 T foot stimulation, every dosage), the “total inhibitory effect of tolterodine combined with foot stimulation” value was “additive”. Besides, the “post-stimulation effect on bladder capacity” value in assay [1] (after 2 T and 4 T stimulation, every dose of tolterodine) is recorded as “no post-stimulation effect was observed”. Moreover, the “effect on bladder capacity during AA infusion CMGs” value in assay [1] (cumulative doses 0.003-0.3 mg/kg i.v., absence of foot stimulation) is on record as “increased bladder capacity dose dependently”. Also, the bladder capacity in assay [1] (tolterodine 0.1 mg/kg i.v., 4 T foot stimulation) is given as 97.0±11.2 % of saline control; in assay [1] (tolterodine 0.3 mg/kg i.v. (cumulative), absence of foot stimulation, N=6 cats), 65.6±15.5 % of the saline control capacity; in assay [1] (tolterodine 0.3 mg/kg i.v., 2 T foot stimulation), 86.2±6.2 % of the saline control; in assay [1] (tolterodine 0.3 mg/kg i.v., 4 T foot stimulation), 107.9±10.6 % of the saline control. Besides, the “threshold pressure for inducing a micturition reflex” value in assay [1] (tolterodine 0.3 mg/kg i.v., 5.0±1.3 cm H2O before treatment) is listed as 8.1±1.4 cm H2O.
As for `CNCC[C@H](Oc1cccc2ccccc12)c1cccs1` [duloxetine], the “effect on AA-induced overactivity” value in assay [2] (3 mg/kg i.v., absence of stimulation) was “completely removed AA-induced overactivity”. The “post-stimulation effect on bladder capacity” value in assay [2] (after 2 T and 4 T stimulation in duloxetine treated animals) is “absence of a post-stimulation effect”. Moreover, the “effect of foot stimulation on capacity when combined with duloxetine” value in assay [2] (after doses 0.003 mg/kg to 0.03 mg/kg i.v.) is on record as “significantly (p<0.05) increased capacity”; in assay [2] (after doses between 0.1 mg/kg and 3 mg/kg i.v.) it was “did not significantly increase capacity”. For the same compound, the bladder capacity in assay [2] (after final 3 mg/kg dose of duloxetine, before WAY100635, no stimulation, N=4 cats) was 117.3±17.6 % of saline control; in assay [2] (duloxetine 3 mg/kg i.v. (cumulative), AA infusion, absence of stimulation, N=8 cats) it was 109±15.5 % of saline control; in assay [2] (duloxetine 3 mg/kg i.v., AA infusion, during 2 T foot stimulation (5 Hz, 0.2 ms)) it was 129.3±23.2 % of saline control; in assay [2] (duloxetine 3 mg/kg i.v., AA infusion, during 4 T foot stimulation (5 Hz, 0.2 ms)) it was 129.2±25.8 % of saline control. For the same compound, the “effect on bladder capacity during AA infusion” value in assay [2] (doses 0.1-3 mg/kg i.v., absence of stimulation) is “dose-dependently and significantly (p<0.05) increased bladder capacity”.
For `COc1ccccc1N1CCN(CCN(C(=O)C2CCCCC2)c2ccccn2)CC1` [WAY100635], in assay [2] (WAY100635 0.5168 mg/kg i.v. after final 3 mg/kg dose of duloxetine, no stimulation, N=4 cats, p=0.008), the bladder capacity was 162.2±22.5 % of saline control. Besides, the “effect of WAY100635 alone on bladder capacity” value in assay [3] was “does not affect bladder capacity”.

Values taken from patent US11794009B2, “Devices, systems and methods for treating urological and gastrointestinal disorders by electrical stimulation of the foot” (priority 2014, dated 2023).
